Drawing on ChEMBL document CHEMBL3507680, “University of Dundee, Gates Library screen for HepG2 cell viability”, this text covers cytotoxicity for 38 compounds.

A short description of the series: Human HepG2 cell viability assay in 384 well format. The class given is toxicity, cell-based. Also noted: dose 125 nL, time 70.5 hour; concentration not given beside the values. To be noted: HepG2 cells, read-out: Inhibition.
For the compound `Cc1ccc2c(c1)C(=O)NCC1(CCN(C(=O)c3ccnn3C)CC1)O2`, the cytotoxicity at 70.5 h was -4.65%.
On to `Cc1cccc(C(=O)N2C[C@@H]3CC[C@H](Oc4cccc(F)c4)[C@@H]3C2)n1`, for which the cytotoxicity at 70.5 h was -5.82%.
For `NCc1cnn(-c2ccccc2C(=O)NCCc2ccccn2)c1` the value was -6.02%; for `COCCNC(=O)c1ccccc1-n1cc(CN)cn1`, -1.19%; for `Cc1ccc(CC(=O)N(C)CC2(O)CCCN(c3ccccn3)C2)s1` (stereo not drawn), -5.95%.
For the compound `O=c1ccn([C@H]2CCN(Cc3ncc[nH]3)CC[C@@H]2O)c(=O)[nH]1`, the cytotoxicity at 70.5 h is -4.85%.
For the compound `Cc1ccc(CN2CC[C@H](O)[C@@H](n3ccc(=O)[nH]c3=O)CC2)cc1`, the cytotoxicity at 70.5 h is -2.58%.
For the compound `Cc1noc(C)c1-c1cncc(C2CCCN2Cc2nccs2)n1` (stereo not drawn), the cytotoxicity at 70.5 h is -9.87%.
As for `Cc1noc(C)c1-c1cncc(C2CCCN2Cc2cn(C)cn2)n1` (stereo not drawn), the figure is -5.21%; as for `Fc1ccc(CN2CCCC(c3nccnc3-n3ccnc3)C2)cc1` (stereo not drawn), 3.95%.
Turning to `NCCn1nc(C2CCN(Cc3ccccc3Cl)C2)c2nccnc21` (stereo not drawn), the cytotoxicity at 70.5 h was -4.18%.
For `CSCC[C@H]1CN2CCC[C@H]2CN1Cc1cn(C)nc1C`, the cytotoxicity at 70.5 h was -3.69%.
As for `CSCC[C@@H]1CN2CCC[C@H]2CN1Cc1cn(C)nc1C`, the figure is 19.2%; as for `Cc1nc[nH]c1CN1CCN(C2CCOCC2)CC(C(N)=O)C1` (stereo not drawn), -9.69%.
Consider `Cc1nn(C)c(C)c1-c1cnc(C2CCCN(C)C2)cn1` (stereo not drawn), for which the cytotoxicity at 70.5 h was -7.8%.
`CCCNC(=O)c1cncc(CC2CCCN(C)C2)c1` (stereo not drawn): the cytotoxicity at 70.5 h is -6.34%.
Consider `CC(C)N(Cc1ccccc1)C(=O)c1cc(C2CCCN2C)ccn1` (stereo not drawn), for which the cytotoxicity at 70.5 h was -6.6%.
Consider `CCc1nnc(Nc2cccc(C3CCN(C(=O)CO)CC3)n2)s1`, for which the cytotoxicity at 70.5 h was -4.24%.
For `Cc1cccnc1C(=O)N1C[C@@H]2CC[C@H](Oc3cccc(F)c3)[C@@H]2C1` the value was -8.25%; for `CCc1cc(C(F)(F)F)c2c(C3CCN(C(=O)COC)CC3)noc2n1`, -6.22%; for `COCCC(=O)N1CCCC(c2noc3nc(C)cc(C(F)(F)F)c23)C1` (stereo not drawn), -5.21%.
As for `COCC(=O)N1CCCC(c2noc3nc(C)cc(C(F)(F)F)c23)C1` (stereo not drawn), the cytotoxicity at 70.5 h came to 12.8%.
As for `Cc1ccc(-n2c(SCC(=O)O)nnc2-c2ccccc2)cc1`, the cytotoxicity at 70.5 h is -7.44%.
On to `Cc1ccc(-n2c(SCC(=O)O)nnc2-c2cccc(C)c2)cc1`, for which the cytotoxicity at 70.5 h is -7.34%.
On to `CC(=O)N1CCC(Cc2cnc(C(=O)N3CCCC3)cn2)C1` (stereo not drawn), for which the cytotoxicity at 70.5 h is -4.28%.
For the compound `Cc1nc(C2CN(C)CCO2)cc(N2CCSCC2)n1` (stereo not drawn), the cytotoxicity at 70.5 h was found to be 26.1%.
For `N#Cc1ccc(CN2CCCCC2Cn2cncn2)cc1` (stereo not drawn), the cytotoxicity at 70.5 h was 11.7%.
On to `Cn1ccc(C(=O)Nc2nc(-c3ccc4c(c3)CCO4)cs2)cc1=O`, for which the cytotoxicity at 70.5 h was -6.04%.
For the compound `COC(=O)C(C)CN(C)S(=O)(=O)c1c(Br)cc2[nH]c(=O)oc2c1Cl` (stereo not drawn), the cytotoxicity at 70.5 h is -4.98%.
Turning to `CCNC(=O)CN(CC)S(=O)(=O)c1c(Br)cc2[nH]c(=O)oc2c1Cl`, the cytotoxicity at 70.5 h was -12.3%.
Take `CC(C)(C)OC(=O)N[C@H]1CCN(C(=O)c2cc(Cl)c[nH]2)C1`: the cytotoxicity at 70.5 h was -4.47%.
In the case of `CCc1cnc(CN(C)C(=O)Nc2cnc3c(c2)c(C)nn3C)s1`, the cytotoxicity at 70.5 h is -2.27%.
For `COc1ccc(CNCc2cc(Br)c3c(c2)OCO3)cc1`, the cytotoxicity at 70.5 h is -3.3%.
In the case of `N#Cc1ccc(CN2CCCC(Cn3cncn3)C2)c(F)c1` (stereo not drawn), the cytotoxicity at 70.5 h worked out at 8.28%.
For `CNC(=O)N1CCOC(C)(c2cnn(C)c2)C1` (stereo not drawn), the cytotoxicity at 70.5 h is -5.87%.
On to `COc1ccccc1CC1CCCN(C(=O)c2nccnc2N)C1` (stereo not drawn), for which the cytotoxicity at 70.5 h is -6.5%.
On to `Cc1cc(C[C@@H]2COC[C@H]2NCc2ccc(Cl)c(Cl)c2)on1`, for which the cytotoxicity at 70.5 h is 19.8%.
As for `CC1CCCN(Cc2ccnc(-c3cccnc3)n2)C1` (stereo not drawn), the figure is -13%.
